Test systems include CCRF-CEM; MCF7; COLO 205; KM-20L2; MDA-N; IGROV-1; NCI/ADR-RES; HCC 2998; UO-31; UACC-257; MDA-MB-435; SK-MEL-5; T47D; NCI-H23; Hs-578T; SK-MEL-2; PC-3; ACHN; BT-549; MDA-MB-231.
Common to all, as to experiment: NCI anticancer screen, dose series, 48 h

This note sets out measurements from ChEMBL document CHEMBL1201862, “PubChem BioAssay data set” (2004).

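In this assay, cells in 96-well plates receive the compound at five concentrations for 48 hours. Endpoints are linearly interpolated between the surrounding concentrations. Abbreviation: GI50, concentration required for 50% inhibition of growth.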 Calls of active or inactive are those of the source. Rule as the data show it: active = GI50 up to about 1.1 µM and inactive = higher.

Regarding `COc1cc(OC)c(OC)cc1/C=C\c1ccnc2ccccc12`, the GI50 in the assay with CCRF-CEM was 1.4 µM (inactive); in the assay on MCF7, 0.372 µM (active); in the assay on COLO 205, 0.463 µM (active); in the assay with KM-20L2, 0.948 µM (active); with MDA-N it was 0.185 µM (active); in the assay with IGROV-1 it was 0.897 µM (active). The GI50 with NCI/ADR-RES is 0.374 µM (active); in the assay on HCC 2998, 1.02 µM (active); with UO-31, 0.944 µM (active); with UACC-257, 4.88 µM (inactive); in the assay on MDA-MB-435 it was 0.156 µM (active); in the assay with SK-MEL-5, 0.414 µM (active). Moreover, the GI50 was 0.771 µM (active) in the assay with T47D; 0.832 µM (active) in the assay with NCI-H23; 0.252 µM (active) in the assay on Hs-578T; 0.308 µM (active) with SK-MEL-2; 0.532 µM (active) with PC-3; 1.29 µM (inactive) in the assay on ACHN. Moreover, the GI50 is 0.412 µM (active) in the assay on BT-549 and 0.796 µM (active) in the assay on MDA-MB-231.
With `Cc1c(N(C)C)ccc2c(=O)c3cccc(CC(=O)O)c3oc12`, the GI50 with CCRF-CEM, in the assay with MCF7, in the assay with COLO 205, in the assay with KM-20L2, with MDA-N and in the assay on IGROV-1 was > 100 µM (inactive) throughout. The GI50 in the assay with NCI/ADR-RES was > 100 µM (inactive); in the assay on HCC 2998, > 100 µM (inactive); in the assay on UO-31, > 100 µM (inactive); in the assay on UACC-257 it was > 100 µM (inactive); with MDA-MB-435, > 100 µM (inactive); with SK-MEL-5, > 75.3 µM (inactive). In addition, the GI50 in the assay on T47D, in the assay on NCI-H23, in the assay on Hs-578T, in the assay with SK-MEL-2, with PC-3 and with ACHN was > 100 µM (inactive) throughout. The GI50 with BT-549 was 65.2 µM (inactive); with MDA-MB-231 it was > 100 µM (inactive).
